What was measured:
Assay in all cases: relative viability (nuclei count vs DMSO), 5 days (fraction); higher = more cells survive
Palbociclib + OSI-027 = compound: CC(=O)c1c(C)c2cnc(Nc3ccc(N4CCNCC4)cn3)nc2n(C2CCCC2)c1=O [Palbociclib] + COc1cccc2cc(-c3nc([C@H]4CC[C@H](C(=O)O)CC4)n4ncnc(N)c34)[nH]c12 [OSI-027] (partner 0.5 µM)
How it was run: (§1)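 Lung cancer cell lines in 1536-well plates got either a single drug or a fixed anchor-drug dose together with five library-drug doses (not always all listed) in √10 steps, by pin tool, on the day after seeding. Nuclei were counted after 5 days, and relative viability is the treated-to-vehicle ratio of nuclei counts. Values are medians of duplicate plates.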

Palbociclib + Phenformin = compound: CC(=O)c1c(C)c2cnc(Nc3ccc(N4CCNCC4)cn3)nc2n(C2CCCC2)c1=O [Palbociclib] + N=C(N)NC(=N)NCCc1ccccc1 [Phenformin] (partner 250 µM)
How it was run: as §1

Palbociclib + Luminespib = compound: CC(=O)c1c(C)c2cnc(Nc3ccc(N4CCNCC4)cn3)nc2n(C2CCCC2)c1=O [Palbociclib] + CCNC(=O)c1noc(-c2cc(C(C)C)c(O)cc2O)c1-c1ccc(CN2CCOCC2)cc1 [Luminespib] (partner 0.01 µM)
How it was run: as §1

Palbociclib + Foretinib = compound: CC(=O)c1c(C)c2cnc(Nc3ccc(N4CCNCC4)cn3)nc2n(C2CCCC2)c1=O [Palbociclib] + COc1cc2c(Oc3ccc(NC(=O)C4(C(=O)Nc5ccc(F)cc5)CC4)cc3F)ccnc2cc1OCCCN1CCOCC1 [Foretinib] (partner 0.25 µM)
How it was run: as §1

Palbociclib + Dasatinib = compound: CC(=O)c1c(C)c2cnc(Nc3ccc(N4CCNCC4)cn3)nc2n(C2CCCC2)c1=O [Palbociclib] + Cc1nc(Nc2ncc(C(=O)Nc3c(C)cccc3Cl)s2)cc(N2CCN(CCO)CC2)n1 [Dasatinib] (partner 0.075 µM)
How it was run: as §1

Palbociclib + Tozasertib = compound: CC(=O)c1c(C)c2cnc(Nc3ccc(N4CCNCC4)cn3)nc2n(C2CCCC2)c1=O [Palbociclib] + Cc1cc(Nc2cc(N3CCN(C)CC3)nc(Sc3ccc(NC(=O)C4CC4)cc3)n2)n[nH]1 [Tozasertib] (partner 0.1 µM)
How it was run: as §1

Palbociclib = compound: CC(=O)c1c(C)c2cnc(Nc3ccc(N4CCNCC4)cn3)nc2n(C2CCCC2)c1=O [Palbociclib]
How it was run: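 Lung cancer cell lines were seeded into 1536-well plates, kept overnight at 37 °C and pinned with five library-drug doses (not always all listed) spaced by √10. After 5 days, nuclei were Hoechst-stained, imaged at 4× and counted with MetaXpress. Viability is treated-well nuclei over vehicle-well nuclei, taken as a median across plates. Plates needed control CV below 25% and at least one doubling.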

Palbociclib + AZD7762 = compound: CC(=O)c1c(C)c2cnc(Nc3ccc(N4CCNCC4)cn3)nc2n(C2CCCC2)c1=O [Palbociclib] + NC(=O)Nc1cc(-c2cccc(F)c2)sc1C(=O)N[C@H]1CCCNC1 [AZD7762] (partner 0.2 µM)
How it was run: as §1

Palbociclib + Olaparib = compound: CC(=O)c1c(C)c2cnc(Nc3ccc(N4CCNCC4)cn3)nc2n(C2CCCC2)c1=O [Palbociclib] + O=C(c1cc(Cc2n[nH]c(=O)c3ccccc23)ccc1F)N1CCN(C(=O)C2CC2)CC1 [Olaparib] (partner 8 µM)
How it was run: as §1

Palbociclib + Vorinostat = compound: CC(=O)c1c(C)c2cnc(Nc3ccc(N4CCNCC4)cn3)nc2n(C2CCCC2)c1=O [Palbociclib] + O=C(CCCCCCC(=O)Nc1ccccc1)NO [Vorinostat] (partner 1 µM)
How it was run: as §1

Palbociclib + Trametinib = compound: CC(=O)c1c(C)c2cnc(Nc3ccc(N4CCNCC4)cn3)nc2n(C2CCCC2)c1=O [Palbociclib] + CC(=O)Nc1cccc(-n2c(=O)n(C3CC3)c(=O)c3c(Nc4ccc(I)cc4F)n(C)c(=O)c(C)c32)c1 [Trametinib] (partner 0.02 µM)
How it was run: as §1

Palbociclib + Decitabine = compound: CC(=O)c1c(C)c2cnc(Nc3ccc(N4CCNCC4)cn3)nc2n(C2CCCC2)c1=O [Palbociclib] + Nc1ncn([C@H]2C[C@H](O)[C@@H](CO)O2)c(=O)n1 [Decitabine] (partner 2 µM)
How it was run: as §1

Palbociclib + Pemetrexed = compound: CC(=O)c1c(C)c2cnc(Nc3ccc(N4CCNCC4)cn3)nc2n(C2CCCC2)c1=O [Palbociclib] + Nc1nc2[nH]cc(CCc3ccc(C(=O)N[C@@H](CCC(=O)O)C(=O)O)cc3)c2c(=O)[nH]1 [Pemetrexed] (partner 0.2 µM)
How it was run: as §1

NCI-H1623 was tested, and the relative viability (Palbociclib + OSI-027; first compound 0.01 µM) was 0.488, the relative viability (Palbociclib + OSI-027; first compound 0.03162 µM) was 0.512 and the relative viability (Palbociclib + OSI-027; first compound 0.1 µM) was 0.448. It also gave a relative viability (Palbociclib + OSI-027; first compound 0.3162 µM) of 0.398, a relative viability (Palbociclib + OSI-027; first compound 1 µM) of 0.364 and a relative viability (Palbociclib + Phenformin; first compound 0.01 µM) of 0.602. The relative viability (Palbociclib + Phenformin; first compound 0.03162 µM) was 0.534, the relative viability (Palbociclib + Phenformin; first compound 0.1 µM) was 0.628 and the relative viability (Palbociclib + Phenformin; first compound 0.3162 µM) was 0.615. It also gave a relative viability (Palbociclib + Phenformin; first compound 1 µM) of 0.496, a relative viability (Palbociclib + Luminespib; first compound 0.01 µM) of 0.496 and a relative viability (Palbociclib + Luminespib; first compound 0.03162 µM) of 0.473. The relative viability (Palbociclib + Luminespib; first compound 0.1 µM) was 0.587, the relative viability (Palbociclib + Luminespib; first compound 0.3162 µM) was 0.463 and the relative viability (Palbociclib + Luminespib; first compound 1 µM) was 0.463. For the same cell line, the relative viability (Palbociclib + Foretinib; first compound 0.01 µM) was 0.97, the relative viability (Palbociclib + Foretinib; first compound 0.03162 µM) was 0.741 and the relative viability (Palbociclib + Foretinib; first compound 0.1 µM) was 0.867. It also gave a relative viability (Palbociclib + Foretinib; first compound 0.3162 µM) of 0.994, a relative viability (Palbociclib + Foretinib; first compound 1 µM) of 0.64 and a relative viability (Palbociclib + Dasatinib; first compound 0.01 µM) of 0.551. The relative viability (Palbociclib + Dasatinib; first compound 0.03162 µM) was 0.473, the relative viability (Palbociclib + Dasatinib; first compound 0.1 µM) was 0.517 and the relative viability (Palbociclib + Dasatinib; first compound 0.3162 µM) was 0.546. The relative viability (Palbociclib + Dasatinib; first compound 1 µM) was 0.453, the relative viability (Palbociclib + Tozasertib; first compound 0.01 µM) was 0.481 and the relative viability (Palbociclib + Tozasertib; first compound 0.03162 µM) was 0.48. The relative viability (Palbociclib + Tozasertib; first compound 0.1 µM) was 0.476, the relative viability (Palbociclib + Tozasertib; first compound 0.3162 µM) was 0.417 and the relative viability (Palbociclib + Tozasertib; first compound 1 µM) was 0.37. It also gave a relative viability (Palbociclib; 0.01 µM) of 1.16, a relative viability (Palbociclib; 0.03162 µM) of 0.885 and a relative viability (Palbociclib; 0.1 µM) of 0.918. It also gave a relative viability (Palbociclib; 0.3162 µM) of 0.951 and a relative viability (Palbociclib; 1 µM) of 0.686.
Cell Line NCI-H2342 has a relative viability (Palbociclib + OSI-027; first compound 0.01 µM) of 0.575, a relative viability (Palbociclib + OSI-027; first compound 0.03162 µM) of 0.546 and a relative viability (Palbociclib + OSI-027; first compound 0.1 µM) of 0.566. It also gave a relative viability (Palbociclib + OSI-027; first compound 0.3162 µM) of 0.549, a relative viability (Palbociclib + OSI-027; first compound 1 µM) of 0.433 and a relative viability (Palbociclib + AZD7762; first compound 0.01 µM) of 0.457. The relative viability (Palbociclib + AZD7762; first compound 0.03162 µM) was 0.467, the relative viability (Palbociclib + AZD7762; first compound 0.1 µM) was 0.414 and the relative viability (Palbociclib + AZD7762; first compound 0.3162 µM) was 0.409. For the same cell line, the relative viability (Palbociclib + AZD7762; first compound 1 µM) was 0.399, the relative viability (Palbociclib + Phenformin; first compound 0.01 µM) was 0.569 and the relative viability (Palbociclib + Phenformin; first compound 0.03162 µM) was 0.555. It also gave a relative viability (Palbociclib + Phenformin; first compound 0.1 µM) of 0.477, a relative viability (Palbociclib + Phenformin; first compound 0.3162 µM) of 0.564 and a relative viability (Palbociclib + Phenformin; first compound 1 µM) of 0.441. The relative viability (Palbociclib + Olaparib; first compound 0.01 µM) was 0.497, the relative viability (Palbociclib + Olaparib; first compound 0.03162 µM) was 0.504 and the relative viability (Palbociclib + Olaparib; first compound 0.1 µM) was 0.375. For the same cell line, the relative viability (Palbociclib + Olaparib; first compound 0.3162 µM) was 0.422, the relative viability (Palbociclib + Olaparib; first compound 1 µM) was 0.419 and the relative viability (Palbociclib + Luminespib; first compound 0.01 µM) was 0.719. It also gave a relative viability (Palbociclib + Luminespib; first compound 0.03162 µM) of 0.757, a relative viability (Palbociclib + Luminespib; first compound 0.1 µM) of 0.575 and a relative viability (Palbociclib + Luminespib; first compound 0.3162 µM) of 0.718. For the same cell line, the relative viability (Palbociclib + Luminespib; first compound 1 µM) was 0.549, the relative viability (Palbociclib + Foretinib; first compound 0.01 µM) was 0.986 and the relative viability (Palbociclib + Foretinib; first compound 0.03162 µM) was 0.974. It also gave a relative viability (Palbociclib + Foretinib; first compound 0.1 µM) of 0.749, a relative viability (Palbociclib + Foretinib; first compound 0.3162 µM) of 0.995 and a relative viability (Palbociclib + Foretinib; first compound 1 µM) of 0.662. It also gave a relative viability (Palbociclib + Vorinostat; first compound 0.01 µM) of 0.713, a relative viability (Palbociclib + Vorinostat; first compound 0.03162 µM) of 0.63 and a relative viability (Palbociclib + Vorinostat; first compound 0.1 µM) of 0.895. It also gave a relative viability (Palbociclib + Vorinostat; first compound 0.3162 µM) of 0.638, a relative viability (Palbociclib + Vorinostat; first compound 1 µM) of 0.585 and a relative viability (Palbociclib + Trametinib; first compound 0.01 µM) of 1.09. For the same cell line, the relative viability (Palbociclib + Trametinib; first compound 0.03162 µM) was 0.825, the relative viability (Palbociclib + Trametinib; first compound 0.1 µM) was 0.695 and the relative viability (Palbociclib + Trametinib; first compound 0.3162 µM) was 0.758. For the same cell line, the relative viability (Palbociclib + Trametinib; first compound 1 µM) was 0.669, the relative viability (Palbociclib + Decitabine; first compound 0.01 µM) was 0.744 and the relative viability (Palbociclib + Decitabine; first compound 0.03162 µM) was 0.712. For the same cell line, the relative viability (Palbociclib + Decitabine; first compound 0.1 µM) was 0.602, the relative viability (Palbociclib + Decitabine; first compound 0.3162 µM) was 0.713 and the relative viability (Palbociclib + Decitabine; first compound 1 µM) was 0.582. It also gave a relative viability (Palbociclib + Dasatinib; first compound 0.01 µM) of 0.324, a relative viability (Palbociclib + Dasatinib; first compound 0.03162 µM) of 0.302 and a relative viability (Palbociclib + Dasatinib; first compound 0.1 µM) of 0.306. The relative viability (Palbociclib + Dasatinib; first compound 0.3162 µM) was 0.301, the relative viability (Palbociclib + Dasatinib; first compound 1 µM) was 0.314 and the relative viability (Palbociclib + Pemetrexed; first compound 0.01 µM) was 0.766. The relative viability (Palbociclib + Pemetrexed; first compound 0.03162 µM) was 0.691, the relative viability (Palbociclib + Pemetrexed; first compound 0.1 µM) was 0.861 and the relative viability (Palbociclib + Pemetrexed; first compound 0.3162 µM) was 0.747. For the same cell line, the relative viability (Palbociclib + Pemetrexed; first compound 1 µM) was 0.556, the relative viability (Palbociclib + Tozasertib; first compound 0.01 µM) was 0.556 and the relative viability (Palbociclib + Tozasertib; first compound 0.03162 µM) was 0.4. The relative viability (Palbociclib + Tozasertib; first compound 0.1 µM) was 0.493, the relative viability (Palbociclib + Tozasertib; first compound 0.3162 µM) was 0.544 and the relative viability (Palbociclib + Tozasertib; first compound 1 µM) was 0.409. For the same cell line, the relative viability (Palbociclib; 0.01 µM) was 1.01, the relative viability (Palbociclib; 0.03162 µM) was 0.846 and the relative viability (Palbociclib; 0.1 µM) was 0.849. For the same cell line, the relative viability (Palbociclib; 0.3162 µM) was 0.785, the relative viability (Palbociclib; 0.5 µM, anchor plate) was 0.527 and the relative viability (Palbociclib; 1 µM) was 0.621.
